# Data as given in ChEMBL document CHEMBL1201862, “PubChem BioAssay data set” (2004).
# Active and inactive are the calls of the source.
# Assays:
# HEK293 = experiment: inhibitors of LMP1-driven NF-kB reporter, dose response, cell-based, HEK293, luciferase, cherry-pick (AID 588343); assay type: functional; settings: Homo sapiens
# [1] = target: T1, Corticotropin-releasing factor receptor 2/Corticotropin-releasing factor-binding protein (Homo sapiens, UniProt P24387+Q13324); experiment: Dose Response confirmation of uHTS hits for small molecule antagonists of the CRF-binding protein and CRF-R2 receptor complex.; assay type: functional; settings: read-out: IC50_Mean
# T1 sequence (Q13324 whole entry): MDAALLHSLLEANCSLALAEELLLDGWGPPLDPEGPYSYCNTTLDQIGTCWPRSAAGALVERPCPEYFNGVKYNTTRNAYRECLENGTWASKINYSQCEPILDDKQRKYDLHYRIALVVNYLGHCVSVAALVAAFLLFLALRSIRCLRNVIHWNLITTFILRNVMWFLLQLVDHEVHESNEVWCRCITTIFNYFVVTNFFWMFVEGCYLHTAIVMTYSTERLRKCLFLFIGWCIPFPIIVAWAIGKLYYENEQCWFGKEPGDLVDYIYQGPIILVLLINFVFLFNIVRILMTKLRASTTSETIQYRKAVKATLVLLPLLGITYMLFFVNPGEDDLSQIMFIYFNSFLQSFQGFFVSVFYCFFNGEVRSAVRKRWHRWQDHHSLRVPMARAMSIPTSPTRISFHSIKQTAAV
# T1 sequence (P24387 whole entry): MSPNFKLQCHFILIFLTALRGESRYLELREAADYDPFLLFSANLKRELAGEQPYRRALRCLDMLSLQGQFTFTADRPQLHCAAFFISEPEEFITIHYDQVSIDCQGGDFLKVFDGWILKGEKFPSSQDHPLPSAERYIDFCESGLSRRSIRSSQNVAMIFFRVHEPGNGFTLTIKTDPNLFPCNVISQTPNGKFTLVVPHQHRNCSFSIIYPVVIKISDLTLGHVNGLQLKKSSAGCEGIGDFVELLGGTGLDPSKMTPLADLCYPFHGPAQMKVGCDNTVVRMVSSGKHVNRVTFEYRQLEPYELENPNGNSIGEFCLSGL
# [2] = target: T1, Corticotropin-releasing factor receptor 2/Corticotropin-releasing factor-binding protein; experiment: activators of CRF receptor 2 with binding protein – uHTS hits, confirmation (AID 602473); assay type: functional; settings: read-out: EC50_Mean
# [3] = CRF-BP/CRF-R2 complex antagonists, dose response, cell-based, uHTS hits, 384-well (AID 651639); assay type: functional, Homo sapiens; settings: read-out: IC50_Mean
# [4] = inhibitors of intracellular T. cruzi replication, confirmation, NIH3T3 host cells, beta-gal luminescence (AID 2044); assay type: functional, cell-based;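 note: intracellular parasites grown in NIH/3T3 mouse fibroblasts as host cells; luminescent beta-galactosidase reporter signal from transgenic T. cruzi replicating inside host cells; inhibitors lower the luminescence signal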
# [5] = cytotoxicity toward NIH3T3 fibroblasts, dose response, counter-screen, cell-based, ATP luminescence, mouse fibroblasts (AID 2010); assay type: functional;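 note: cells exposed to compound for about 90 hours before reading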
# [6] = Shn3 3'UTR reporter inhibitors, dose response, cell-based, Clone20 osteoblasts, firefly luciferase, cherry-picked (AID 624132); assay type: functional;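 note: firefly luciferase luminescence from reporter carrying the Shn3 3'UTR in osteoblasts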
# [7] = HepG2 cell cytotoxicity, dose response, cytotoxicity control for Shn3 inhibitor project, CellTiter-Glo, cherry-picked (AID 624134); assay type: functional, cell-based
# [8] = control 3'UTR Renilla luciferase suppression, dose response, counter-screen for Shn3 inhibitor project, cell-based, Clone20-Shn3RL, cherry-picked (AID 624133); assay type: functional
# [9] = P. falciparum Dd2 growth inhibitors, dose response, SYBR Green, cherry-picked samples (AID 1159567); assay type: functional, cell-based
# [10] = HepG2 cell cytotoxicity, dose response, cytotoxicity control, cherry-picked samples (AID 1159577); assay type: functional, cell-based
# Vero [11] = experiment: cells; assay type: functional, cell-based; settings: Chlorocebus sabaeus
# Vero [12] = experiment: cells; assay type: functional; settings: Chlorocebus sabaeus
# [13] = target: T2, High affinity choline transporter 1 (Homo sapiens, UniProt Q9GZV3); experiment: CHT inhibitors, dose response, cell-based, 5-point CRC, membrane potential dye (AID 504840); assay type: functional
# T2 sequence (Q9GZV3 whole entry): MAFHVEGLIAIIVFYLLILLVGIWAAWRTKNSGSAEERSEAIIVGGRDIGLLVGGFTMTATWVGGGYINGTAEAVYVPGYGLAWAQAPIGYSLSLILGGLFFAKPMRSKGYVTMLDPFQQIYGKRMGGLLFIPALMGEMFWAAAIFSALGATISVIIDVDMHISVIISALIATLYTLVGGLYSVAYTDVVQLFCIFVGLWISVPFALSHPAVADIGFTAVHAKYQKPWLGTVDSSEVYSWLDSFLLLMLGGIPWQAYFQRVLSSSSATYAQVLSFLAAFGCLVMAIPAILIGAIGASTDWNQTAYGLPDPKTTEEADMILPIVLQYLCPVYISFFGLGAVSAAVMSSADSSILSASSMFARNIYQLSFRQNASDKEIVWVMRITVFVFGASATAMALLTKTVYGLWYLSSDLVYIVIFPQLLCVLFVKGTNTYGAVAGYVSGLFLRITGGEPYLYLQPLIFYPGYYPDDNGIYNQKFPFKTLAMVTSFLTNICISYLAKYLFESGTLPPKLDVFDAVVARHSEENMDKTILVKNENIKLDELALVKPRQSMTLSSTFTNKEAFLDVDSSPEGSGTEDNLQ
# H9c2 = experiment: cells; assay type: functional, cell-based; settings: Rattus norvegicus, H9c2, Myocardium;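 note: confirmatory concentration-response retest of ultra-high-throughput screening hits for modulation of myocardial damage; cell death induced by hydrogen peroxide oxidative stress; compound pretreatment for 60 min then peroxide exposure for 2 h; potency is for protecting the cells against peroxide damage rather than for killing them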
# Protein skinhead-1 = target: T3, Protein skinhead-1 (Caenorhabditis elegans, UniProt P34707); assay type: functional
# T3 sequence (P34707 whole entry): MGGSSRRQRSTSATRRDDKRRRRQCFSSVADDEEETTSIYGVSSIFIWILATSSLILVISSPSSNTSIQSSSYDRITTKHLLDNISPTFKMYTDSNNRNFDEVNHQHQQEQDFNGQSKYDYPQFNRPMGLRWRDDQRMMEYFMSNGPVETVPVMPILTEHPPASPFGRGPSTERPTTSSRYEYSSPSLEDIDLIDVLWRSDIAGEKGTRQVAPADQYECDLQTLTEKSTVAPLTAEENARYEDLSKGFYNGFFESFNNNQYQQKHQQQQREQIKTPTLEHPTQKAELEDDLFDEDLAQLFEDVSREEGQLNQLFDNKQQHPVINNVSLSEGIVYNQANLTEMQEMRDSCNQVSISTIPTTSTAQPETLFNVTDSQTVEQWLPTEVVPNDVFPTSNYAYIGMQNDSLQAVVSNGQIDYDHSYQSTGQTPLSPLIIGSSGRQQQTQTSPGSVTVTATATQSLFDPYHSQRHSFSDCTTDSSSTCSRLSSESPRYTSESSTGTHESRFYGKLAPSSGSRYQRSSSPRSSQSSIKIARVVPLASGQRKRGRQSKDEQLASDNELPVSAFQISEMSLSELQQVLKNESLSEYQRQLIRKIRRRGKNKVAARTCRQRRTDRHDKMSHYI
# [14] = P. falciparum 3D7-ScDHODH growth inhibitors, dose response, SYBR Green, dry powder samples (AID 1159570); assay type: functional, cell-based;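 note: parasite growth measured after 72 hours of compound exposure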
# [15] = P. falciparum Dd2 growth inhibitors, dose response, SYBR Green, dry powder samples (AID 1159566); assay type: functional, cell-based;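 note: potency for growth inhibition with lower SYBR green DNA signal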
# [16] = P. falciparum ATP4 D1247Y mutant growth inhibitors, dose response, NITD609-resistant line, SYBR Green, dry powder (AID 1159571); assay type: functional, cell-based;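 note: parasites synchronized at ring stage by sorbitol before testing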
# Paired box protein Pax-8 = Paired box protein Pax-8 (Homo sapiens, UniProt Q06710); experiment: inhibitors of PAX8-driven TPO luciferase reporter, dose response, RMG-I cells, cherry-pick (AID 687027); assay type: functional, cell-based;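 note: luciferase reporter driven by Pax8 target thyroperoxidase promoter measured by SteadyGlo luminescence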
# Sequence of Paired box protein Pax-8 (Q06710 whole entry): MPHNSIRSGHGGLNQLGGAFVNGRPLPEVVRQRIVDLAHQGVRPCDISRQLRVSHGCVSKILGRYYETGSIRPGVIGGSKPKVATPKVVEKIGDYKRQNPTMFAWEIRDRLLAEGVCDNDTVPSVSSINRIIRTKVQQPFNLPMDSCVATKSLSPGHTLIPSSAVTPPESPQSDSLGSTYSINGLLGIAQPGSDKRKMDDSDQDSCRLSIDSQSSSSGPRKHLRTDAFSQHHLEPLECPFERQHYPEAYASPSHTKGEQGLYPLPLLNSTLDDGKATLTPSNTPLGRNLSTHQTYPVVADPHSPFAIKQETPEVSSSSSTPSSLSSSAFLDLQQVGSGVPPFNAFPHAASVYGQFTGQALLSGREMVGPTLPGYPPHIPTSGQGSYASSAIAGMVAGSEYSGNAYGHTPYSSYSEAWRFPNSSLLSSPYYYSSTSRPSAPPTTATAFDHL
# Genome polyprotein = Genome polyprotein (dengue virus type 2, UniProt P29990); experiment: Dengue-2 NS5 methyltransferase inhibitors, primary screen, biochemical, confirmation dose response (AID 588689); assay type: functional
# Sequence of Genome polyprotein (P29990 2492-3391 limits assumed): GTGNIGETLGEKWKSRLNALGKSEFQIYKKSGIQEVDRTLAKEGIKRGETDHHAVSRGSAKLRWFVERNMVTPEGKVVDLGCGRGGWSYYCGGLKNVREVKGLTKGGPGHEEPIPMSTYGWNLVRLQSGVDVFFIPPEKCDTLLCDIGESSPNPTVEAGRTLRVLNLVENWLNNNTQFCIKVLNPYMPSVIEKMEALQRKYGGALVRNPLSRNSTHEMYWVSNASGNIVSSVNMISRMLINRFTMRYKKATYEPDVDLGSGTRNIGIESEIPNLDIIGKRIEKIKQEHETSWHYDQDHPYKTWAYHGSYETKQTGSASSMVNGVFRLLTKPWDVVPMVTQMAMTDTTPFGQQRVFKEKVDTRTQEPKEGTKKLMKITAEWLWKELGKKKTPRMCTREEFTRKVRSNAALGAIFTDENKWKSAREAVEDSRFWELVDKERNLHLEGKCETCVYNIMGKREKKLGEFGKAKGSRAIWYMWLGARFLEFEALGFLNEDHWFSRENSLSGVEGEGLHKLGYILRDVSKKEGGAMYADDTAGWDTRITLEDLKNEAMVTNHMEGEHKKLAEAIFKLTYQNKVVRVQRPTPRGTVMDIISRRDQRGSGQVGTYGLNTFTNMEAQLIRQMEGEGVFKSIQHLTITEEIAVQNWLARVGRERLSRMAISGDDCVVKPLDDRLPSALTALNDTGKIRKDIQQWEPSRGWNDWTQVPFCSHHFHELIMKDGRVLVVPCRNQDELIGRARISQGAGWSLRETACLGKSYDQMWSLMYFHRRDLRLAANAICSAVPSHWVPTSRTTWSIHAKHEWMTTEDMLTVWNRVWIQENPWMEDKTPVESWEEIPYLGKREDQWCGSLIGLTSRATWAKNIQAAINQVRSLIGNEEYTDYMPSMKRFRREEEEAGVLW
# [17] = NIH-3T3 fibroblast cytotoxicity, dose response, cytotoxicity control, cell-based, fluorescence, Alamar Blue, secondary assay (AID 2327); assay type: functional;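 note: NIH-3T3 mouse fibroblasts cultured with fluconazole at 8 µg/mL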
# [18] = C. albicans growth with fluconazole, confirmation, fluorescence, retest (AID 2467); assay type: functional, cell-based
# [19] = HeLa cell cytotoxicity, dose response, cytotoxicity control for MgcRacGAP inhibitor project (AID 624300); assay type: functional
# [20] = target: T4, Rac GTPase-activating protein 1 (Homo sapiens, UniProt Q9H0H5); experiment: MgcRacGAP GTPase-activating activity inhibitors, confirmation, biochemical, ADP Hunter fluorescence, primary and confirmatory (AID 624330); assay type: functional
# T4 sequence (Q9H0H5 whole entry): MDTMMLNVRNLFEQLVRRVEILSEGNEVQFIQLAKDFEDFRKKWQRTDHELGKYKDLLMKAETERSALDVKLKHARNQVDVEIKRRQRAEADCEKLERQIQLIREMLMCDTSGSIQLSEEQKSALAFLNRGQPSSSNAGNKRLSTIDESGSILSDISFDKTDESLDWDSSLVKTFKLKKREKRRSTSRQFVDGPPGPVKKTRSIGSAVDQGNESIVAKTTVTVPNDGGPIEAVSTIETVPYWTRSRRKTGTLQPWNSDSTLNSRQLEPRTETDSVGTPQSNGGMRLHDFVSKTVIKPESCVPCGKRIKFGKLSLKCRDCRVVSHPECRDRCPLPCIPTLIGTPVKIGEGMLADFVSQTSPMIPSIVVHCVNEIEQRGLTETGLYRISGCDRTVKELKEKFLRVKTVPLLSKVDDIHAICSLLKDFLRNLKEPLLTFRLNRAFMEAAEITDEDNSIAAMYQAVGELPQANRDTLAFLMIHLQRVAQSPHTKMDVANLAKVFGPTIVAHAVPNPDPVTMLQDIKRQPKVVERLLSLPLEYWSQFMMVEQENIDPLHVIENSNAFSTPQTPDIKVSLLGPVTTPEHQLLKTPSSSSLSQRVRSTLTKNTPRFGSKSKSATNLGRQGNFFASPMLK
smiles,measurement,setting,value
CC1(CCCc2ccc(N(CCCl)CCCl)cc2)NC(=O)NC1=O (centres undefined),AC50,HEK293,4.51 µM (active)
NC(=O)c1ccc(NCc2ccco2)c([N+](=O)[O-])c1,IC50,[1],5.79 µM (active)
same,EC50,[2],> 53 µM (inactive)
same,IC50,[3],3.57 µM (active)
N#C/C(=N\Nc1ccccc1Cl)C(=O)c1ccccc1,IC50,[1],10.2 µM (active)
same,EC50,[2],> 53 µM (inactive)
same,IC50,[3],> 20 µM (inactive)
CCCc1nc2ccc(Br)cc2c(=O)n1-c1ccc([N+](=O)[O-])c(C(F)(F)F)c1,EC50,[4],2 µM (active)
same,EC50,[5],> 60 µM (not active)
same,AC50,HEK293,29.2 µM (active)
same,AC50,[6],15.7 µM (active)
same,AC50,[7],7.4 µM (active)
same,AC50,[8],11.7 µM (active)
C[C@@H]1CN([C@@H](C)CO)C(=O)Cc2cc(NC(=O)Nc3ccccc3)ccc2O[C@H]1CN(C)Cc1ccc2c(c1)OCO2,AC50,[9],3.97 µM (active)
same,AC50,[10],> 39 µM (inactive)
Clc1ccc(-c2cc(C3CCNCC3)[nH]n2)c(Cl)c1,IC50,Vero [11],24.8 µM (active)
same,CC50,Vero [12],> 25 µM (active)
Cc1cc(C)cc(OC(C)C(=O)Nc2ccc(S(=O)(=O)Nc3cc(C)nc(C)n3)cc2)c1 (centres undefined),IC50,[13],13.2 µM (active)
CCCN1C(=O)c2ccccc2NC1c1ccc(OC)c(CSc2ccccn2)c1 (centres undefined),IC50,[1],46.2 µM (active)
same,EC50,[2],> 53 µM (inactive)
same,IC50,[3],> 20 µM (inactive)
O=c1oc2ccc3ccccc3c2cc1-c1nnc(-c2ccccc2)o1,IC50,H9c2,> 79 µM (inactive)
same,IC50,[1],< 0.368 µM (active)
same,EC50,[2],> 53 µM (inactive)
same,IC50,Protein skinhead-1,> 100 µM (inactive)
same,IC50,[3],0.39 µM (active)
COc1ccc(S(=O)(=O)N2CC[C@@H]3[C@H]2c2cc(C#Cc4ccccc4OC)ccc2N[C@@H]3CO)cc1,AC50,[9],11.3 µM (active)
same,AC50,[10],> 39 µM (inactive)
OC[C@@H]1Nc2ccc(C#Cc3ccccc3)cc2[C@@H]2[C@H]1CCN2Cc1nccs1,AC50,[14],3.71 µM (active)
same,AC50,[9],2.95 µM (active)
same,AC50,[15],3.5 µM (active)
same,AC50,[10],> 39 µM (inactive)
same,AC50,[16],3.32 µM (active)
COc1ccc(C#Cc2ccc3c(c2)O[C@@H](CN(C)S(=O)(=O)c2ccccc2F)[C@@H](C)CN([C@H](C)CO)S3(=O)=O)cc1,AC50,[14],1.43 µM (active)
same,AC50,[9],1.23 µM (active)
same,AC50,[15],1.07 µM (active)
same,AC50,[16],1.16 µM (active)
COc1ccc(NC(=O)Nc2cccc3c2O[C@H](CN(C)Cc2ccc(-c4ccccc4)cc2)[C@@H](C)CN([C@@H](C)CO)C3=O)cc1,AC50,[9],3.25 µM (active)
same,AC50,[10],16.2 µM (active)
CC(=O)O[C@H]1C[C@H](O[C@H]2[C@@H](O)C[C@H](O[C@H]3[C@@H](O)C[C@H](O[C@H]4CC[C@@]5(C)[C@H](CC[C@@H]6[C@@H]5CC[C@]5(O)[C@@H](C7=CC(=O)OC7)CC[C@]65O)C4)O[C@@H]3C)O[C@@H]2C)O[C@H](C)[C@H]1O[C@@H]1O[C@H](CO)[C@@H](O)[C@H](O)[C@H]1O,IC50,Vero [11],< 0.05 µM (active)
same,CC50,Vero [12],1.78 µM (active)
same,AC50,Paired box protein Pax-8,1.98 µM (active)
OC[C@H]1[C@@H](c2ccc(/C=C/c3ccccc3)cc2)[C@@H]2CN(Cc3cncnc3)CCCCN12,AC50,[9],4.13 µM (active)
same,AC50,[10],20.3 µM (active)
Cc1nn(C(C)C(=O)NC(C)CCc2ccccc2)c(=O)c2cc3occc3n12 (centres undefined),IC50,[13],17.4 µM (active)
COc1cccc(/C=C2\SC(=S)N(NS(=O)(=O)c3ccccc3)C2=O)c1OC,IC50,[13],0.692 µM (active)
same,IC50,Genome polyprotein,41.1 µM (active)
same,IC50,[1],22.3 µM (active)
same,EC50,[2],> 53 µM (inactive)
Cc1ccc(-c2csc(Nc3ccc(C(=O)O)cc3)[n+]2Cc2ccccc2)cc1,IC50,[1],13 µM (active)
same,EC50,[2],> 53 µM (inactive)
same,IC50,[3],16.5 µM (active)
Cc1ccccc1C(=O)c1cccn1CC(=O)NC(C)c1ccccc1 (centres undefined),IC50,[13],12.6 µM (active)
Brc1cccc(CSc2nnc(-c3ccncc3)o2)c1,EC50,[17],41.1 µM (active)
same,EC50,[18],> 38 µM (not active)
same,AC50,HEK293,47 µM (active)
COc1cccc2c1C(=O)c1c(O)c3c(c(O)c1C2=O)C[C@@](O)(C(=O)CO)C[C@@H]3OC1CC(N)C(O)C(C)O1 (some centres undefined),IC50,Vero [11],> 25 µM (active)
same,CC50,[19],23.5 µM (active)
same,IC50,[20],53.5 µM (active)
